Measurements published in ChEMBL document CHEMBL4480429, “Discovery of (S)-6-methoxy-chroman-3-carboxylic acid (4-pyridin-4-yl-phenyl)-amide as potent and isoform selective ROCK2 inhibitors” (Bioorg Med Chem, 2019).
pIC50: −log10 of the molar value.

Key:
[1] = species: Homo sapiens; test: Selectivity ratio of IC50 for ROCK1 (unknown origin) to IC50 for ROCK2 (unknown origin)
[2] = molecular target: Rho-associated protein kinase 1 (Homo sapiens, UniProt Q13464); test: Inhibition of ROCK1 (unknown origin) using STK2 as substrate measured after 4 hrs by HTRF assay
[3] = molecular target: Rho-associated protein kinase 2 (Homo sapiens, UniProt O75116); test: Inhibition of ROCK2 (unknown origin) using STK2 as substrate measured after 4 hrs by HTRF assay
Sequence of Rho-associated protein kinase 2 (O75116 whole entry): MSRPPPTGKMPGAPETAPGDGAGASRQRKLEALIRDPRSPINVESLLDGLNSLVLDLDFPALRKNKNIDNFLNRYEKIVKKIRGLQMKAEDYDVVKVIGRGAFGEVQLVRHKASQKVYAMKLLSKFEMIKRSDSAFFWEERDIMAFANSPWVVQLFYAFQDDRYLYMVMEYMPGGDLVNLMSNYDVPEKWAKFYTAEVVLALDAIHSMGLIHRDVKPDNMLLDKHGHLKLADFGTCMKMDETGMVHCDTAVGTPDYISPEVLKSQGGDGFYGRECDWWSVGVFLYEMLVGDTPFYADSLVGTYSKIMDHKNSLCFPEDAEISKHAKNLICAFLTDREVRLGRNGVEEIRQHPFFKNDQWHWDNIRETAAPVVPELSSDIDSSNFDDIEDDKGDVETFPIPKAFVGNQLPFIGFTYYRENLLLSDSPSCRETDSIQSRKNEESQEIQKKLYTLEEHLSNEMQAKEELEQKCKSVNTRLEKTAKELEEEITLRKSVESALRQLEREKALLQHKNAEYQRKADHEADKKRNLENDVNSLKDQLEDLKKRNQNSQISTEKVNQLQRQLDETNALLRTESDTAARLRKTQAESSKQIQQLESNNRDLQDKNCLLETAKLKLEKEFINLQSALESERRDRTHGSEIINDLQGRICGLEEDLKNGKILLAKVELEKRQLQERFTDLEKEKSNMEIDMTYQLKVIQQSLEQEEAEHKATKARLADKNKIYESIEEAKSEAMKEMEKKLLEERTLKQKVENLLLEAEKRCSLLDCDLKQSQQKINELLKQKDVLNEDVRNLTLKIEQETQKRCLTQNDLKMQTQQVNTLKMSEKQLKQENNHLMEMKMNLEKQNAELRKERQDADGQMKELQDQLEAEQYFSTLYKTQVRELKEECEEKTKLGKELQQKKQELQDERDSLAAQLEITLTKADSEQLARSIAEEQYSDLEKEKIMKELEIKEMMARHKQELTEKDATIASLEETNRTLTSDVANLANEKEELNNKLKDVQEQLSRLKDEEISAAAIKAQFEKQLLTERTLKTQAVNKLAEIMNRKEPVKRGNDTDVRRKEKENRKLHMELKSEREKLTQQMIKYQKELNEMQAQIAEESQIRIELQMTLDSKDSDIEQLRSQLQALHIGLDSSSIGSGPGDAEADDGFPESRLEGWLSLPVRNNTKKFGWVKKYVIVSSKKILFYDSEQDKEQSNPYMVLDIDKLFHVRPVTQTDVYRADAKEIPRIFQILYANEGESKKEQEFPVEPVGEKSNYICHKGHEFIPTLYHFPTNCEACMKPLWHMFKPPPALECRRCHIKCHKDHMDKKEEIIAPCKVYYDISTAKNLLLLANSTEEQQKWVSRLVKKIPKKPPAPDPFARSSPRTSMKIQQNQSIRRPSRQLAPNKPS

Sequence of Rho-associated protein kinase 1 (Q13464 whole entry): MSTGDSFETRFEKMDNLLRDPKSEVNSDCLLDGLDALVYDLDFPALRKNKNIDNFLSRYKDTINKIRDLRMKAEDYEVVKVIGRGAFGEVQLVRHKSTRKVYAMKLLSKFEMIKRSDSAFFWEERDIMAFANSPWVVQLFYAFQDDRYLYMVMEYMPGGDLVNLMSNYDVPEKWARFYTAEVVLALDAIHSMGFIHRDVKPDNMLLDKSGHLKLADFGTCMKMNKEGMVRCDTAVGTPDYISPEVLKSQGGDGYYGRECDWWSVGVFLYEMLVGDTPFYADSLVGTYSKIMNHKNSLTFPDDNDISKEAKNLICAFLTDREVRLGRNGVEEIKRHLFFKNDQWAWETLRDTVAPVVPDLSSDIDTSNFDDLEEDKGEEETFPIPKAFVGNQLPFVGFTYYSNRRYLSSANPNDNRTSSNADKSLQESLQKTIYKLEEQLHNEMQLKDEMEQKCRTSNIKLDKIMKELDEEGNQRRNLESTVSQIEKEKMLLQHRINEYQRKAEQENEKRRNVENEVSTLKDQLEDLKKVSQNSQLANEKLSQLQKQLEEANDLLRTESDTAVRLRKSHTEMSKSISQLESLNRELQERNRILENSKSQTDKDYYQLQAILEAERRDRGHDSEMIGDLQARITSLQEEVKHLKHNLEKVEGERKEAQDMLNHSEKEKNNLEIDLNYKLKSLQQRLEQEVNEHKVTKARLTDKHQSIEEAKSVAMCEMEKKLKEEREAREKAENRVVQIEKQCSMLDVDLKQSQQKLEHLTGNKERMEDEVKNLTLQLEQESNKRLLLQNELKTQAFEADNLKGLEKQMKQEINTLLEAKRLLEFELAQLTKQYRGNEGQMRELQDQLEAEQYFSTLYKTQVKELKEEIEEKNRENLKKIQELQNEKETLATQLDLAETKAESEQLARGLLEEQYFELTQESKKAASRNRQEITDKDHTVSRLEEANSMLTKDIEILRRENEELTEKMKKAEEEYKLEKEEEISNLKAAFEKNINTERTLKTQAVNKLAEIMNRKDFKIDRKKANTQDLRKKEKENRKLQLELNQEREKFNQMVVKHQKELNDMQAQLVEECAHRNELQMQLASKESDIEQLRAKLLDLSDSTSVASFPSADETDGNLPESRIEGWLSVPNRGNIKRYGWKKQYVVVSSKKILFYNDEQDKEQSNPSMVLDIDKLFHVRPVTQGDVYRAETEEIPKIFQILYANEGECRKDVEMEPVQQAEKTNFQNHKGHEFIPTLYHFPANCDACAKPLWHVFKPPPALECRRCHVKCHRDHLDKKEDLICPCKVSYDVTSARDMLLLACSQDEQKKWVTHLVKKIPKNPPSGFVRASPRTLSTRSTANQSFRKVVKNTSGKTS

Which Ratio IC50 [1] does the source give for `COc1ccc2c(c1)C[C@H](C(=O)Nc1ccc(-c3ccncc3)cc1OCCN(C)C)CO2` here?
Its Ratio IC50 is 22.7.

And the pIC50 [2]?
The pIC50 was 7.17.

And the pIC50 [3]?
Its pIC50 is 8.52.

With `COc1ccc2c(c1)CC(C(=O)Nc1ccc(-c3ccncc3)cc1OCCN(C)C)CO2` (stereo not given) as the compound, how does the Ratio IC50 [1] read?
Its Ratio IC50 is 18.9.

And the pIC50 [2]?
The pIC50 was 6.77.

What about the pIC50 [3] of the same compound?
Its pIC50 is 8.05.

With `CN(C)CCOc1cc(-c2ccncc2)ccc1NC(=O)C1COc2ccc(F)cc2C1` (stereo not given) as the compound, how does the Ratio IC50 [1] read?
The Ratio IC50 was 14.8.

What about the pIC50 [2] of the same compound?
Its pIC50 is 6.98.

What about the pIC50 [3] of the same compound?
The pIC50 was 8.15.

With `Cc1ccc2c(c1)CC(C(=O)Nc1ccc(-c3ccncc3)cc1OCCN(C)C)CO2` (stereo not given) as the compound, how does the Ratio IC50 [1] read?
The Ratio IC50 was 7.

And the pIC50 [2]?
Its pIC50 is 6.77.

What about the pIC50 [3] of the same compound?
Its pIC50 is 7.62.

What does the source list for `CN(C)CCOc1cc(-c2ccncc2)ccc1NC(=O)C1COc2ccccc2C1` (stereo not given)?
Ratio IC50 [1]: 4.3; pIC50 [2]: 7.52; pIC50 [3]: 8.15

Which results are given for `CN(C)CCOc1cc(-c2ccncc2)ccc1NC(=O)C1COc2ccc(Cl)cc2C1` (stereo not given)?
Ratio IC50 [1]: 6.1; pIC50 [2]: 6.87; pIC50 [3]: 7.66

With `COc1ccc2c(c1)CC(C(=O)Nc1ccc(-c3c[nH]nc3C)cc1OCCN(C)C)CO2` (stereo not given) as the compound, how does the Ratio IC50 [1] read?
Its Ratio IC50 is 13.6.

And the pIC50 [2]?
Its pIC50 is 7.79.

What about the pIC50 [3] of the same compound?
The pIC50 was 8.92.

How did the pIC50 [2] turn out when `COc1ccc2c(c1)CC(C(=O)Nc1ccc(-c3cn[nH]c3)cc1OCCN(C)C)CO2` (stereo not given) was run?
The pIC50 was 8.47.

Which results are given for `COc1ccc2c(c1)C[C@@H](C(=O)Nc1ccc(-c3ccncc3)cc1OCCN(C)C)CO2`?
Ratio IC50 [1]: 3; pIC50 [2]: 6.28; pIC50 [3]: 6.76
